The results in this text go back to patent publication US7314888B1, “Compounds and medicinal use thereof” (Toyama Chemical Co., Ltd., priority 1998, dated 2008).

Where two headings read alike, the source gives them in different places.

Experiment [1] deals with T1, AP-1 complex (Fos/Jun peptide) (Homo sapiens, UniProt P01100+P05412).
T1 construct: made in house; host or cells: chemical peptide synthesis (no expression host)
Nature of the experiment: Activities on AP-1 binding reaction to recognition sequence (ELISA) using Fos/Jun peptide. The following applies: read-out: Inhibition rate %. The method, then: (§1) Activities on AP-1 Binding Reaction to Recognition Sequence (ELISA)
On the other hand, Jun peptide and N-terminal biotinylated tetraglycine Fos peptide containing a DNA-binding site [Nature, Vol. 373, Pages 257-261, 1995] were synthesized and separately dissolved in tris buffer (20 mM tris-hydrochloride (pH 7.5), 50 mM potassium chloride, 1 mM ethylenediaminetetraacetic acid, 10 mM magnesium chloride, 1 mM dithiothreitol, 0.5M guanidine hydrochloride, 30% glycerol). Equimolar quantities of both the solutions were mixed together, and the mixture was used as an AP-1 complex (Fos/Jun peptide). The AP-1 complex was added to avidin-coating 96-well ELISA plate (10 pmol/well), washed, and then blocked with bovine serum albumin. The product was used for binding assay using AP-1 complex.
(§2) On the basis of the above-mentioned two coated AP-1, a digoxigenin-labeled double stranded oligonucleotide (22-mer) containing an AP-1 binding sequence ([…]) which has been synthesized elsewhere was reacted in the presence and absence of a sample at room temperature for 30-60 minutes in a binding reaction solution [Hepes buffer or 25 mM tris-hydrochloric acid (pH 7.9), 0.5 mM ethylenediaminetetraacetic acid, 0.05% Nonidet P-40, 10% glycerol]. After of the reaction, unbound labeled oligonucleotide washed out with Hepes buffer solution containing 0.05% of Tween-20. Then, an anti-digoxigenin antibody labeled with peroxidase was added, and reacted with the labeled oligonucleotide bound to AP-1. After washing out the excessive antibody with Hepes buffer containing 0.05% of Tween-20, the residue was reacted for a predetermined period of time in a 100 mM citrate buffer (pH 5.0) containing hydrogen peroxide by using o-phenylenediamine as a substrate. After adding-sulfuric acid solution to each well, absorbance (492 nm) was measured. Taking the absorbance in the absence of sample as 100%, inhibition rate of sample was calculated from the absorbance in the presence of sample.

Experiment [2] relates to type II collagen-induced arthritis. Nature of the experiment: Type II collagen-induced arthritis in mice. The conditions noted are these: for inhibition at 100 mg/kg: Mus musculus, po, 100 mg/kg orally, 37th day. The class given is in vivo. The method, then:
Type II Collagen-Induced Arthritis in Mice The effect of the compound of Example 12 on the type II collagen-induced arthritis in mice was examined. As the animals, 8 weeks old male DBA/1J mice (Charles River Japan) were used. To 2 mg/mL solution of bovine type II collagen in 0.1 mol/L acetic acid (Kouken) was added an equivalent quantity of Freund complete adjuvant (Nacalai Tesque), and prepared an emulsion. 0.2 ml of the emulsion was subcutaneously injected into the tail root portion. On the 22nd day as counted from the day of first inoculation, the same treatment as above was repeated to induce arthritis. The compound was suspended in 0.5% methyl cellulose solution and administered orally at 100 mg/kg once every day from the 22nd day to the 36th day. To the control group (negative control group), a 0.5% methyl cellulose solution was administered similarly. Severity of the arthritis was evaluated in the following manner: score 0: no change score 1: swelling on one or two toes or slight swelling in the foreleg root or hindleg root only; score 2: swelling and rubor in more joints; score 3: extensive swelling over whole foreleg or hindleg; and total of the four legs was calculated. Taking the maximum score as 12, the arthritis score was calculated to evaluate the severity of arthritis. Regarding the destruction of joints and bones, X ray photographs of four paws were taken on the 37th day, and severity of destruction in the second to fifth articulationes interphalangeae, first to fifth articulationes metacarpophalangeae and metatarsophalangeae, and calcaneus was scored by 0 or 1 in accordance with presence or absence of destruction, and the severity of destruction in the carpus and tarsal was scored by 0 to 3. Total score for the four paws was taken as joint and bone destruction score, taking 50 points as maximum score.

Experiment [3] relates to transcription factor AP-1 (nuclear extract protein prepared from HeLa cells). Nature of the experiment: Activities on AP-1 binding reaction to recognition sequence (ELISA) using nuclear extract protein. The following applies: 100 μM; ELISA using nucleus-extracted protein. The method, then:
as §1
Nuclear extract protein containing transcription factor AP-1 prepared from HeLa cells was coated on 96-well ELISA plate (100 ng/well) in Hepes buffer (20 mM Hepes-potassium hydroxide (pH 7.9), 0,5 mM ethylenediamine-tetraacetic acid, 50 mM potassium chloride, 10% glycerol). After washing, a blocking treatment was carried out with bovine serum albumin, and then used for a binding assay using nuclear extract protein.
as §2

T1 sequence (P01100 137-200 limits assumed): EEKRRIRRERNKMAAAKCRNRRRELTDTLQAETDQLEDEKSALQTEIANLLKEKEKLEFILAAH
T1 sequence (P05412 252-315 limits assumed): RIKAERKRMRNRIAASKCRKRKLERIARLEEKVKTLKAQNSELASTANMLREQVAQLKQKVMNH

With `CC(C)COc1ccc(C(=O)c2ccc(OCC(C)C)c(CCC(=O)O)c2)c(OCC(C)C)c1` [Example 12, 3-[5-(2,4-diisobutoxybenzoyl)-2-isobutoxyphenyl]propionic acid], in experiment [1] (200 μM), the inhibition at 200 µM came out at 24%. Also, in experiment [1] (500 μM), the inhibition at 500 µM was found to be 90%. In experiment [2] (DBA/1J mice, 100 mg/kg orally once every day from 22nd to 36th day, 37th day from first inoculation, maximum score 12), this molecule came in with an arthritis score of 3. The “joint and bone destruction score” value in experiment [2] (DBA/1J mice, 100 mg/kg orally once every day from 22nd to 36th day, X ray on 37th day, maximum score 50) was 10. In addition, the inhibition at 100 mg/kg in experiment [2] (read-out: inhibition rate as compared with control group (arthritis score)) came to 63%; in experiment [2] (read-out: inhibition rate as compared with control group (joint and bone destruction score)), 62%.
Turning to “Ac-Cys^1-Gly-Gln-Leu-Asp-Leu-Ala-Asp-Gly-Cys^10-NH2 (Cys^1-Cys^10) (GQLDLADGC; not fully specified; N-acetyl Cys, C-amide, Cys1-Cys10 disulfide; printed: Gly-Gln-Leu-Asp-Leu-Ala-Asp-Gly-Cys) [Example 2]”, the Inhibition rate in experiment [3] is given as 81%.
